According to ChEMBL document CHEMBL1201862, “PubChem BioAssay data set” (2004):
Activity calls are given as the source filed them.

What was measured:
[1] = test system: HEK293; test: inhibitors of LMP1-driven NF-kB reporter, dose response, cell-based, HEK293, luciferase, cherry-pick (AID 588343); type: functional; details: Homo sapiens
[2] = molecular target: T1, Short transient receptor potential channel 4 (Mus musculus, UniProt Q9QUQ5); test: mouse TRPC4 channel activators, dose response, cell-based, HEK293 TRPC4/mu-opioid, Fluo-4 calcium (AID 434937); type: functional
T1 sequence (Q9QUQ5 whole entry): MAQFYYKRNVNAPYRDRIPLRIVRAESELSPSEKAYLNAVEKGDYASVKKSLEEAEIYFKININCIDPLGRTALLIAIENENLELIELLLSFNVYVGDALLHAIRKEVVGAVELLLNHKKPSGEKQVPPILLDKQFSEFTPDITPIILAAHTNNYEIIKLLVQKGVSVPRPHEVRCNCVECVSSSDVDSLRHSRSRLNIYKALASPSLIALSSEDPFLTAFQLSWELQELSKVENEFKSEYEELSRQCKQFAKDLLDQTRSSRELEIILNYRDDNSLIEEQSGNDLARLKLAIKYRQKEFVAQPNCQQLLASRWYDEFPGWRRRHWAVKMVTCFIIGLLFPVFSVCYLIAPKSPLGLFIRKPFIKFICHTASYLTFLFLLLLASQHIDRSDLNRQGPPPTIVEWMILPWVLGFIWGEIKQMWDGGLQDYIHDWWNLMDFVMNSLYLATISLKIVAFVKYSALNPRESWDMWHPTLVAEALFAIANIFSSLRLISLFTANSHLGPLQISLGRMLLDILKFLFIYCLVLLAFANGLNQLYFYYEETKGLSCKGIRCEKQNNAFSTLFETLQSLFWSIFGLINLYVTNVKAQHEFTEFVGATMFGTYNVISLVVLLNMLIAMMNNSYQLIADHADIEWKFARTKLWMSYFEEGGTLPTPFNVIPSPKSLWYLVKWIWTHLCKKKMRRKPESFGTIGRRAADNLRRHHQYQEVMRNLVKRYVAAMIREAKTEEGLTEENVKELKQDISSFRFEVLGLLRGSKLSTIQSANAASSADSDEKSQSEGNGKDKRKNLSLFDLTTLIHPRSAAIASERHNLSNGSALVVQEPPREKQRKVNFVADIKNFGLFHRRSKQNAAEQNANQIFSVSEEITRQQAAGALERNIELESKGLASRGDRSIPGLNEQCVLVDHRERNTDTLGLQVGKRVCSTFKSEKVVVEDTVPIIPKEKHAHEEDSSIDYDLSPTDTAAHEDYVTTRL

[3] = cytotoxicity toward NIH3T3 fibroblasts, dose response, counter-screen, cell-based, ATP luminescence, mouse fibroblasts (AID 2010); type: functional;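 note: cells exposed to compound for about 90 hours before reading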
[4] = inhibitors of intracellular T. cruzi replication, confirmation, NIH3T3 host cells, beta-gal luminescence (AID 2044); type: functional, cell-based;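 note: intracellular parasites grown in NIH/3T3 mouse fibroblasts as host cells; luminescent beta-galactosidase reporter signal from transgenic T. cruzi replicating inside host cells; inhibitors lower the luminescence signal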
[5] = molecular target: Troponin, cardiac muscle (Homo sapiens, UniProt P19429+P45379+P63316); test: Fluorescence-based biochemical high throughput dose response assay for activators of the calcium sensitivity of cardiac Regulated Thin Filaments (RTF). [Related pubchem assays (depositor defined):AID493008, AID493018, AID504382, AID504383]; type: protein-complex assay
[6] = molecular target: T2, Zinc finger protein mex-5 (Caenorhabditis elegans, UniProt Q9XUB2); test: MEX-5/TCR-2 RNA interaction inhibitors, dose response, biochemical, C. elegans, fluorescence polarization (AID 1960)
T2 sequence (Q9XUB2 whole entry): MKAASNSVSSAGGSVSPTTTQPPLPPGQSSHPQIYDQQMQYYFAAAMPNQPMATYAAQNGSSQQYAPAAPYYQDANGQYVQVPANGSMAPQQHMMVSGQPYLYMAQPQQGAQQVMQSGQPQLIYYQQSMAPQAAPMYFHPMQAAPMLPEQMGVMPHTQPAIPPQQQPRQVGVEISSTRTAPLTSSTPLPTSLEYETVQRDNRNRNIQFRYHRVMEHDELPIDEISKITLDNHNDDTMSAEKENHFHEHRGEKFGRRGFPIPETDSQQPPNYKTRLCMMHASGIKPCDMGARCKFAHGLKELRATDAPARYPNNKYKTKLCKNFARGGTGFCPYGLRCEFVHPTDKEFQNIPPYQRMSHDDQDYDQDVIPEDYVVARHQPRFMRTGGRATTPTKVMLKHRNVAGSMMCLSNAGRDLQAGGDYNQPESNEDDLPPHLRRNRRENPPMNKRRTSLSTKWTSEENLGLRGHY

[7] = molecular target: T3, RNA-binding protein pos-1 (Caenorhabditis elegans, UniProt G5EF15); test: inhibitors of POS-1/mex-3 RNA binding, dose response, biochemical, fluorescence polarization (AID 1964);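 note: purified POS-1 fused to maltose binding protein made in E. coli; potency of compounds blocking POS-1 binding to fluorescent RNA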
T3 sequence (G5EF15 whole entry): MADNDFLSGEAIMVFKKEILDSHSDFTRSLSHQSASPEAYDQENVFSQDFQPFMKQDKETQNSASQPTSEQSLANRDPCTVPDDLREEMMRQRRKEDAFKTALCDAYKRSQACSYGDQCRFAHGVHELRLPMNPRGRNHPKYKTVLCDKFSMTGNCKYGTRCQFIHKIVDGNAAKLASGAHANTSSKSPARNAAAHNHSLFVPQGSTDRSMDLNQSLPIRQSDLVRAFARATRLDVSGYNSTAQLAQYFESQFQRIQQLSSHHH

[8] = cells
[9] = molecular target: Cytochrome P450 2C9 (Homo sapiens, UniProt P11712)
Cytochrome P450 2C9, sequence (P11712 whole entry): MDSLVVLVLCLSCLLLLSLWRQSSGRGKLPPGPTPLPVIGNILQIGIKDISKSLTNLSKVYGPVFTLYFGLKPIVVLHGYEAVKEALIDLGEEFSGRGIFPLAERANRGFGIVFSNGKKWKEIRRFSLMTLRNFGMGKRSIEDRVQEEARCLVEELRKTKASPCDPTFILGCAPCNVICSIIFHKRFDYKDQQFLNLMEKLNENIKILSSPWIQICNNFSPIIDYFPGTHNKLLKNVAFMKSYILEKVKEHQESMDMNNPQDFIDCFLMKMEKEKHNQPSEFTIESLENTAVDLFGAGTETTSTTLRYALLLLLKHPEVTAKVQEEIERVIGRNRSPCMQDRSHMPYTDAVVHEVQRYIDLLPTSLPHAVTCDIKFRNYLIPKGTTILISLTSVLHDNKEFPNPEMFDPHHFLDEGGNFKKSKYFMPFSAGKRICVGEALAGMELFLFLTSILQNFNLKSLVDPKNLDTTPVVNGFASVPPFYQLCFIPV

[10] = molecular target: T4, Rac GTPase-activating protein 1 (Homo sapiens, UniProt Q9H0H5); test: MgcRacGAP GTPase-activating activity inhibitors, confirmation, biochemical, ADP Hunter fluorescence, primary and confirmatory (AID 624330); type: functional
T4 sequence (Q9H0H5 whole entry): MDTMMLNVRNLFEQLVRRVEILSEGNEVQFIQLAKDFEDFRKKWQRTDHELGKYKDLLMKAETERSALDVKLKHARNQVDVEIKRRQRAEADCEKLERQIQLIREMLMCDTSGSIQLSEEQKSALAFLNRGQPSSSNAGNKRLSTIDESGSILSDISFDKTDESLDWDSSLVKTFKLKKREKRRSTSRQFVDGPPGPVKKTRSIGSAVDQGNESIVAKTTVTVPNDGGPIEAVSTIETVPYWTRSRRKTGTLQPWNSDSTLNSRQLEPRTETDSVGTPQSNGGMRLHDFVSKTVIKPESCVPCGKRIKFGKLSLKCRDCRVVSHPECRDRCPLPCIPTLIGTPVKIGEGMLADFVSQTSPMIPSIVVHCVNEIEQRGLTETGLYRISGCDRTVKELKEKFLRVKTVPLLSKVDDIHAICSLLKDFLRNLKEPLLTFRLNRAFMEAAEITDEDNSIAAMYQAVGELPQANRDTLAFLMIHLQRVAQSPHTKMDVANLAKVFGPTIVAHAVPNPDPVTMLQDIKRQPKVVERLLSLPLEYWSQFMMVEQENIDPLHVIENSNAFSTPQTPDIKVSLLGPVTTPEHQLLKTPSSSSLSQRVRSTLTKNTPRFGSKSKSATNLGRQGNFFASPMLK

[11] = molecular target: Glucose-6-phosphate 1-dehydrogenase (Homo sapiens, UniProt P11413); test: human G6PD enzyme inhibitors, dose response, selectivity assay for P. falciparum G6PD inhibitor project, biochemical, fluorescence (AID 504792); type: functional
Glucose-6-phosphate 1-dehydrogenase, sequence (P11413 whole entry): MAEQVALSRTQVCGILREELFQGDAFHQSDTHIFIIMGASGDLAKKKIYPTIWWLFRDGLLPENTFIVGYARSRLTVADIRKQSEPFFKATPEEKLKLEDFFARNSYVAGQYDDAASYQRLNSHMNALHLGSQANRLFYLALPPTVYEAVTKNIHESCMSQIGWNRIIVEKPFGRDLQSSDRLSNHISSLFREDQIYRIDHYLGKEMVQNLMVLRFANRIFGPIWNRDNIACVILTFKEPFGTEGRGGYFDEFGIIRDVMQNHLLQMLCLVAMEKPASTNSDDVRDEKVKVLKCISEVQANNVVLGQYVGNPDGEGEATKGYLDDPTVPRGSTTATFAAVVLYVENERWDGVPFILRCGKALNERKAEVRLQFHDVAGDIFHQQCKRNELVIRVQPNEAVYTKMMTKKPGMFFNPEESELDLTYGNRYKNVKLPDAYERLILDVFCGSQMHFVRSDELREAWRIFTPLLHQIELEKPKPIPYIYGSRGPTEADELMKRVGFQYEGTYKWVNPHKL

[12] = molecular target: DNA dC->dU-editing enzyme APOBEC-3A (Homo sapiens, UniProt P31941); test: Dose Response confirmation of small molecule APOBEC3A DNA Deaminase Inhibitors via a fluorescence-based single-stranded DNA deaminase assay. [Related pubchem assays (depositor defined):AID493011, AID493024]; type: functional
DNA dC->dU-editing enzyme APOBEC-3A, sequence (P31941 whole entry, the tested form may be a part): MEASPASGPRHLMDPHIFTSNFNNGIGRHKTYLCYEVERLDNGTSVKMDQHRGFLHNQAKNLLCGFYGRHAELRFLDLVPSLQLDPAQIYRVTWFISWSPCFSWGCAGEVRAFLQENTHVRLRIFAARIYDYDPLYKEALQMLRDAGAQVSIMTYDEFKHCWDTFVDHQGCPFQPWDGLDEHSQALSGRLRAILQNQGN

[13] = molecular target: T5, Carboxy-terminal domain RNA polymerase II polypeptide A small phosphatase 1 (Homo sapiens, UniProt Q9GZU7); test: inhibitors of CTDSP1, concentration-response testing, biochemical assay, absorbance-based, actives from ultra-high-throughput screening (AID 540297); type: functional
T5 sequence (Q9GZU7 whole entry): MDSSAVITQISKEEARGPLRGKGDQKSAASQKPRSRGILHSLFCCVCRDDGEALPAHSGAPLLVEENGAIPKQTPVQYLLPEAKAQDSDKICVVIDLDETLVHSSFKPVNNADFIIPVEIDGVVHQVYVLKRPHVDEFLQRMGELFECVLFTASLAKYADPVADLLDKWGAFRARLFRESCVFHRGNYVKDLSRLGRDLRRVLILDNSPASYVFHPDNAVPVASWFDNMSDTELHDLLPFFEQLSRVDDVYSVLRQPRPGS

[14] = molecular target: DNA dC->dU-editing enzyme APOBEC-3G (Homo sapiens, UniProt Q9HC16); type: functional;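 note: Dose-response counterscreen measuring inhibition of APOBEC3G DNA deaminase activity, run while confirming APOBEC3A inhibitors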
DNA dC->dU-editing enzyme APOBEC-3G, sequence (Q9HC16 whole entry): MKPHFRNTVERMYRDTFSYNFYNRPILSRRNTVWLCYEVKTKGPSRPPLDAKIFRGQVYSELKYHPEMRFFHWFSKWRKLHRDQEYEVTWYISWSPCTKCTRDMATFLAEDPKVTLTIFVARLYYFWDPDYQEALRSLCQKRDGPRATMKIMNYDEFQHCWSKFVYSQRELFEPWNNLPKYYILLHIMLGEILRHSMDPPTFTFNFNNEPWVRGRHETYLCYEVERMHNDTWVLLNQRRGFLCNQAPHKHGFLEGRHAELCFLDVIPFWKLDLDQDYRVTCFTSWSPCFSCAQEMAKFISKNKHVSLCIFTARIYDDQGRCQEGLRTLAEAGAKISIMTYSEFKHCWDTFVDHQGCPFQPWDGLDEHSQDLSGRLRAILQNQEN

[15] = test system: H9c2; test: cells; type: functional, cell-based; details: Rattus norvegicus, H9c2, Myocardium;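 note: confirmatory concentration-response retest of ultra-high-throughput screening hits for modulation of myocardial damage; cell death induced by hydrogen peroxide oxidative stress; compound pretreatment for 60 min then peroxide exposure for 2 h; potency is for protecting the cells against peroxide damage rather than for killing them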
[16] = molecular target: Cytochrome P450 3A4 (Homo sapiens, UniProt P08684);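 note: CYP3A4 tested as one member of a cytochrome P450 panel screen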
Cytochrome P450 3A4, sequence (P08684 whole entry): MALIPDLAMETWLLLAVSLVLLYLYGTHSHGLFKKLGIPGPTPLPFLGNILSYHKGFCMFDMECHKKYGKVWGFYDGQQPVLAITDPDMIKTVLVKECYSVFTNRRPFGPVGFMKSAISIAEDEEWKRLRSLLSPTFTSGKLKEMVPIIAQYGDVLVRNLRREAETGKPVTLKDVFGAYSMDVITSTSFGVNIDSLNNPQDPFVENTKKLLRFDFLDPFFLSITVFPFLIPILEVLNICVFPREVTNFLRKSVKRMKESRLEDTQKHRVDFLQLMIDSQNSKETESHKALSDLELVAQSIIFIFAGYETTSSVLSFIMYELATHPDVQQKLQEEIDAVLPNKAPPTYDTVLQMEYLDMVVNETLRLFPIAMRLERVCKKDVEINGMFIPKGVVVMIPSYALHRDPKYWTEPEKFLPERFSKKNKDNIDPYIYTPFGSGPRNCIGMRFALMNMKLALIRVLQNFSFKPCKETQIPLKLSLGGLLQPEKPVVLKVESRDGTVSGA

[17] = Luminescence Cell-Based Dose Confirmation HTS to Identify Activators of 5'UTR Stem-Loop Driven Alpha-Synuclein mRNA Translation in H4 Neuroglioblastoma Cells. [Related pubchem assays: 1829 (Project Summary), 1814 (Primary HTS)]; type: functional
[18] = Luminescence Cell-Based Dose Response HTS to Identify Activators of Luciferase Translation or Activity in H4 […] Cells. [Related pubchem assays: 1829 (Project Summary), 1814 (Primary HTS)]; type: functional
[19] = microbe, parasite or virus in culture; type: functional; details: Mycobacterium tuberculosis
[20] = molecular target: T6, Low molecular weight phosphotyrosine protein phosphatase (Homo sapiens, UniProt P24666); type: functional; details: read-out: IC50_Mean;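 note: Dose-response confirmation assay measuring inhibition of LMPTP enzyme activity by fluorescence intensity read-out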
T6 sequence (P24666 whole entry): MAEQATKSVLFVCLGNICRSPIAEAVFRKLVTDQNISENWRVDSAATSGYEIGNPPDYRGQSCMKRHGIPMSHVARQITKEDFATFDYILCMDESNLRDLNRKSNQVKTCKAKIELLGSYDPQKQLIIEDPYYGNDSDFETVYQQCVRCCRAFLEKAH

[21] = test system: H4; test: Luminescence Cell-Based Dose Response HTS to Identify Activators of 5'UTR Stem-Loop Driven Prion Protein mRNA Translation in H4 Neuroglioblastoma Cells. [Related pubchem assays: 1829 (Project Summary), 1814 (Primary HTS)]; type: functional; details: Homo sapiens

In the case of `Cc1cccc(Cn2cc(C=O)c3ccccc32)c1`, the AC50 [1] is reported as 33.3 µM (active).

With `COC(=O)c1cc(N2CCNCC2)nc2ccccc12` the EC50 [2] was 1.19 µM (active).

In the case of `Cc1ccc(C)c(Cn2c(O)c(N=NC(S)=Nc3ccccc3F)c3ccccc32)c1`, the AC50 [1] is reported as 2.44 µM (active), the EC50 [3] is reported as > 60 µM (not active) and the EC50 [4] is reported as 1.17 µM (active).

With `CC(=O)N1CCc2c(sc(NC(=O)C3CCCN3S(=O)(=O)c3cccs3)c2C(N)=O)C1` (stereo unspecified) the EC50 [5] was 18.5 µM (inactive), the EC50 [6] was 5.83 µM (active) and the EC50 [7] was 10.2 µM (active).

For `O=C(NCCc1c[nH]cn1)c1ccc(-c2ccccc2)cc1`, the EC50 [3] was > 30 µM (not active), the EC50 [4] was < 0.1 µM (active) and the EC50 [8] was 0.062 µM (active). For the same compound, the EC50 [2] was 5.96 µM (active).

With `COC(=O)c1cnn(C(=O)c2cc(OC)ccc2Br)c1N` the AC50 [9] was “inconclusive”.

In the case of `COc1cc(Sc2ccc(C)cc2)c(OC)cc1N`, the IC50 [10] is reported as 24.8 µM (active) and the IC50 [11] is reported as > 80 µM (inactive).

For `CC(=C\C(=O)O)/C(=C/c1ccccc1)C(=O)O`, the AC50 [9] was “inconclusive”.

For `Cc1cc(C)c2sc(NC(=O)C3=COCCO3)nc2c1`, the IC50 [11] was > 80 µM (inactive).

In the case of `CCn1c2c(c(C)[n+]1CC)C(=O)CC(C)(C)C2`, the IC50 [12] is reported as 1.89 µM (active), the IC50 [13] is reported as 18.9 µM (active) and the IC50 [14] is reported as 3.74 µM (active).

In the case of `Cc1ccc(C)c(S(=O)(=O)N2CCN(C(=O)CCc3nc(O)c4ccccc4n3)CC2)c1`, the IC50 [15] is reported as > 79 µM (inactive) and the EC50 [2] is reported as 4.73 µM (active).

For `CCc1nc(NCCc2ccccn2)c2nnn(Cc3ccccc3F)c2n1`, the EC50 [2] was 2.66 µM (active).

With `Cc1ccc2c(c1)C1(SCCS1)C(=O)N2` the AC50 [16] was 11.2 µM (inconclusive) and the AC50 [9] was “inconclusive”.

In the case of `FC(F)(F)c1ccc(Nc2nnnc3ccccc23)cc1`, the EC50 [17] is reported as 7.83 µM (active), the EC50 [18] is reported as 38 µM (active) and the IC50 [13] is reported as 8.61 µM (active). For the same compound, the CC50 [19] was > 40 µM (active), the IC50 [20] was 6.59 µM (active) and the EC50 [21] was 6.68 µM (active).
